Measured values taken from US20160220581A1, “CHROMIUM COMPOSITIONS FOR THE TREATMENT OR PREVENTION OF DIABETIC RETINOPATHY” (JDS Therapeutics, LLC, priority 2015, published 2016).

Experiments:
Format in all cases: in vivo, rat
[1] = system: glucose transporter 3 (GLUT3); assay: Western blot of retina GLUT3 expression in diabetic rats; conditions: diabetic rats treated with CrHis, P<0.05, FIG. 1 Panel B
Method: (§1) Diabetes was induced with streptozotocin [(STZ), 55 mg/kg] by intraperitoneal injection in male Long-Evans rats. Three weeks after STZ injection, rats were divided into four groups, namely, untreated normal controls, normal rats receiving CrHis (110 μg/kg/day); untreated diabetics and diabetics treated with CrHis (110 μg/kg/day) orally for 12 weeks.
(§2) After rats were sacrificed, both eyes were either (1) enucleated and frozen at −80° C. for the measurements of the target biomarker(s) and/or other analysis or (2) are examined immediately post-sacrifice for morphological changes. […]
(§3) Equal amounts of protein (50 μg) were electrophoresed and subsequently transferred onto a nitrocellulosemembrane (Schleicher and Schuell Inc., Keene, N.H., USA). […] Bands were analyzed densitometrically using an image analysis system (Image J; National Institute of Health, Bethesda, USA).
(§4) General procedures were conducted as described above. […] The retina MDA content was measured by high performance liquid chromatography (HPLC, Shimadzu, Tokyo, Japan) using a Shimadzu UV-vis SPD-10 AVP detector and a CTO-10 AS VP column in a mobile phase consisting of 30 mM KH2PO4 and methanol (82.5+17.5, v/v; pH 3.6) at a flow rate of 1.2 ml/min. Column effluents were monitored at 250 nm and the volume was 20 μl. […]
(§5) Data are means of quadruplets of assays and expressed as relative to control (%). […]

[2] = system: hemoglobin glycation and/or retinal protein glycation; assay: Hemoglobin glycation and retinal protein glycation (Example 5); conditions: versus other chromium complexes at equivalent total dosages of chromium
Method: General procedures are conducted as described above. […]. Retinal proteins are extracted from the retinal cellular lysate and characterized by liquid chromatography-mass spectrometry and/or Western Blotting.

retina of diabetic rats = assay: Histologic examination of retina in diabetic rats
Method: as §1
After the eye extirpation, tissue (retina) of each rat was also examined grossly. The tissue was removed for histologic study, washed with normal saline, and immersion-fixed in 10% buffered formalin immediately upon removal. They were gradually dehydrated, embedded in paraffin, cut into 5-μm sections, and stained with hematoxylin and eosin for histologic examination according to standard procedures.
General procedures were conducted as described above. Retinas were highly organized in the normal (control) rats, with intact layers. The retinas were disorganized in the diabetic rats with impaired layers. […] Similar experiments are conducted with other chromium species such as chromium nicotinate and chromium picolinate.

retina insulin = assay: Western blot of retina insulin expression in diabetic rats; conditions: diabetic rats treated with CrHis, P<0.05, FIG. 1 Panel C
Method: as §1, §2, §3, §4, §5

[3] = system: retinal lipoprotein membrane content; assay: Loss of retinal lipoprotein membrane content (Example 6); conditions: versus other chromium complexes at equivalent total dosages of chromium
Method: (§6) General procedures are conducted as described above. Retinal lipids are extracted from the retinal cellular lysate and characterized by liquid chromatography-mass spectrometry.

diabetic retinopathy = assay: Co-administration of chromium histidinate with insulin or metformin in diabetic retinopathy (Example 10)
Method: General procedures are conducted as described above. Co-administration of chromium histidinate with insulin or metformin is performed. Retinal biomarker(s) are extracted from the retinal cellular lysate and characterized by liquid chromatography-mass spectrometry.

retinal photoreceptors = assay: Free radical oxidation of retinal photoreceptors (Example 4); conditions: versus other chromium complexes at equivalent total dosages of chromium
Method: as §6

normal rats = assay: CrHis supplementation in normal rats: body weight and blood/serum biochemical parameters; conditions: CrHis group, CrHis 110 μg/kg/day orally
Method: as §1
(§7) Twenty eight Long Evans rats per experiment, aged 8 weeks with 250±20 g of body weight were used in these experiments. All the animals were kept and maintained under standard guidelines. The animals were kept and maintained at 22±2° C., humidity of 55%±5% and 12/12-hour light/dark cycle. The rats were weighed every week and at the end of the study. Blood sample was collected from the tail vein of each rat for the measurement of biochemical efficacy and safety markers.
(§8) The CrHis was given in the water and administered at a concentration of 110 μg/kg bw/d) to get 9.16 μg elemental Cr (kg body/d), which is an equivalent dose of 614 μg Cr for a 70-kg adult human based on previous work. The Cr concentration of the water provided the control group was negligible (<1 μg/L). The water provided the Cr-supplemented group was initially prepared as a solution containing 3000 μg CrHis/L of water. The […] water was diluted to achieve the target Cr intake per group on the basis of measured water intake. To induce experimental diabetes, STZ was dissolved in citrate buffer (pH 4.5) and injected once intraperitoneally at a dose of 55 mg/kg to the remainder of the animals. A control group was given citrate buffer via intraperitoneal injection.
(§9) Fourteen rats were treated with STZ (55 mg/kg body weight) through intraperitoneal injection. All rats were then fasted for 16 hour prior to treatment, but they had access to drinking water. The animals were divided into 4 groups: group I (Control) rats received citrate buffer intraperitoneally and isotonic saline, orally; group II (Control+CrHis) rats were administered chromium histidinate orally (110 μg/kg body weight) daily for a period of […]; group III (Diabetic) rats received single injection of STZ (55 mg/kg body weight) intraperitoneally and were also given isotonic saline, orally for the duration of the study; group IV (Diabetic+CrHis) diabetic rats were administered chromium orally as chromium histidinate (110 μg/kg body weight) daily for a period of 12 weeks after the induction of diabetes.
(§10) Body weight and blood glucose concentrations were monitored weekly. Blood was collected from the tail vein of the rats. Blood glucose was determined by one touch glucometer (ACCU-Check Active, Roche Diagnostics, Mannheim, Germany) after the injection for 72 h. Before STZ injection, glucose concentrations of study rats and controls were measured and compared.
(§11) Blood samples were centrifuged at 3000×g for 10 min and sera were separated. Serum glucose concentrations were measured by using ACCU-Chek Active (Roche Diagnostics, Basel, Switzerland). Serum insulin levels were measured with the Rat Insulin Kit (Linco Research, St Charles, Mo.) by enzyme-linked immunosorbent assay (ELISA, Elx-800, BioTek Instruments, Winooski, Vt.). Serum concentrations of total cholesterol (TC) were measured by diagnostic kits (Sigma Diagnostics, St Louis, Mo.). Blood glycosylated haemoglobin (HbAlc) was also measured by routine kit (Alfabiotech, Milano, Italy) using the autoanalyzer.
Data were analyzed statistically using one-way ANOVA. […]

[4] = system: glucose transporter 1 (GLUT 1); assay: Western blot of retina GLUT 1 expression in diabetic rats; conditions: diabetic rats treated with CrHis, P<0.05, FIG. 1 Panel A
Method: as §1, §2, §3, §4, §5

[5] = system: retinal capillary basement membrane; assay: Retinal capillary basement membrane thickening (Example 7); conditions: versus other chromium complexes at equivalent total dosages of chromium
Method: General procedures are conducted as described above. Retinal capillary basement membrane thickening is characterized by physical examination of the eye using standard techniques.

retinal microangiopathy = assay: Retinal microangiopathy (Example 8); conditions: versus other chromium complexes at equivalent total dosages of chromium
Method: General procedures are conducted as described above. Retinal microangiopathy is characterized using standard ophthalomogic techniques.

[6] = system: retina malondialdehyde (MDA); assay: Retina MDA content by HPLC in diabetic rats; conditions: diabetic rats treated with CrHis, FIG. 1 Panel D
Method: as §1
General procedures were conducted as described above. After rats were sacrificed, both eyes were enucleated and frozen at −80° C. for the measurements of MDA, GLUT 1, GLUT3 and insulin. The retina MDA content was measured by high performance liquid chromatography (HPLC, Shimadzu, Tokyo, Japan) using a Shimadzu UV-vis SPD-10 AVP detector and a CTO-10 AS VP column in a mobile phase consisting of 30 mM KH2PO4 and methanol (82.5+17.5, v/v; pH 3.6) at a flow rate of 1.2 ml/min. Column effluents were monitored at 250 nm and the volume was 20 μl. The retina homogenate (10%, w/v) was prepared in 10 mM phosphate buffer (pH 7.4), centrifuged at 13,000×g for 10 min at 4° C., and the supernatant was collected and stored at −80° C. for MDA analysis.

diabetic rats = assay: CrHis supplementation in STZ-induced diabetic rats: body weight and blood/serum biochemical parameters
Method: as §1, §7, §8, §9, §10, §11
Data were analyzed statistically using one-way ANOVA. In the analyses for the biomarker(s), the repeated statement was added in the general linear model. The group differences were attained by the Fisher's multiple comparison test [Statistical Package for the Social Sciences (SPSS)]. A P value of less than 0.05 was considered significant.

retinal hard exudates = assay: Retinal hard exudates (Example 9); conditions: versus other chromium complexes at equivalent total dosages of chromium
Method: General procedures are conducted as described above. Retinal hard exudates are extracted from the retinal cellular lysate and characterized by liquid chromatography-mass spectrometry.

retinal lipid oxidation = assay: Retinal lipid oxidation by LC-MS of retinal lysate (Example 3); conditions: versus other chromium complexes at equivalent total dosages of chromium
Method: as §6

[7] = STZ + CrHis group, diabetic rats, CrHis 110 μg/kg/day orally for 12 weeks
[8] = diabetic retinopathy rats treated with CrHis

## chromium histidinate [CrHis]
[1]
  Expression of GLUT3 in the retina: reversed these changes to near control levels
[2]
  Reducing hemoglobin glycation and/or retinal protein glycation: more efficacious
Retina of diabetic rats; CrHis group compared to the diabetes group
  Retina organization (histology): surprisingly improved
Retina of diabetic rats; versus other chromium complexes at equivalent total dosages of chromium
  Reducing the physiological effects of diabetic retinopathy: more efficacious
Retina insulin
  Expression of insulin in the retina: reversed these changes to near control levels
[3]
  Decreasing the loss of retinal lipoprotein membrane content: more efficacious
Diabetic retinopathy
  Effect in treating diabetic retinopathy: synergistic effect
Retinal photoreceptors
  Reducing the free radical oxidation of retinal photoreceptors: more efficacious
Normal rats
  Body weight: 340 g
  Glucose: 100 mg/dL
  Glycosylated hemoglobin: 0.20 mg/g
  Insulin: 50.3 μU/mL
  Total cholesterol: 80 mg/dL
[4]
  Expression of GLUT1 in the retina: reversed these changes to near control levels
[5]
  Preventing retinal capillary basement membrane from thickening: more efficacious
Retinal microangiopathy
  Decreasing microangiopathy: more efficacious
[6]
  MDA expression in retina: statistically significant reduction
Diabetic rats; CrHis-treated diabetic rats compared to the untreated diabetic group, P<0.001
  Body weight, change in words: significantly increased
Diabetic rats; [7]
  Body weight: 250 g
  Glucose: 290 mg/dL
  Glycosylated hemoglobin: 0.45 mg/g
  Insulin: 25.0 μU/mL
  Total cholesterol: 218 mg/dL
Diabetic rats; [8]
  Blood glucose level, change in words: significant increases
  HbAlc level, change in words: significant increases
  Insulin level, change in words: significant increases
Retinal hard exudates
  Reducing hard exudates: more efficacious
Retinal lipid oxidation
  Reducing the retinal lipid oxidation: more efficacious
